What was measured:
HEK293 [1] = experiment: Cytotoxicity against HEK293 cells assessed as reduction in cell viability incubated for 24 hrs by alamar blue assay; type: toxicity, cell-based; settings: human, hek293, 24 h
LNCaP [2] = experiment: Cytotoxicity against human LNCaP cells assessed as reduction in cell viability incubated for 24 hrs by alamar blue assay; type: toxicity, cell-based
U2OS [3] = experiment: Cytotoxicity against human U2OS cells assessed as reduction in cell viability incubated for 24 hrs by alamar blue assay; type: toxicity, cell-based
HFF [4] = experiment: Cytotoxicity against HFF cells assessed as reduction in cell viability incubated for 24 hrs by alamar blue assay; type: toxicity, cell-based; settings: human
MCF7 [5] = experiment: Cytotoxicity against human MCF7 cells assessed as reduction in cell viability incubated for 24 hrs by alamar blue assay; type: toxicity, cell-based; settings: mcf7, 24 h
MDA-MB-231 [6] = experiment: Cytotoxicity against human MDA-MB-231 cells assessed as reduction in cell viability incubated for 24 hrs by alamar blue assay; type: toxicity, cell-based; settings: mda-mb-231, 24 h
HEK293 [7] = experiment: Cytotoxicity against HEK293 cells assessed as reduction in cell viability at 50 to 100 uM incubated for 72 hrs by alamar blue assay; type: toxicity, cell-based; settings: human, hek293, 72 h, dose 50-100 µM
LNCaP [8] = experiment: Cytotoxicity against human LNCaP cells assessed as reduction in cell viability at 50 to 100 uM incubated for 72 hrs by alamar blue assay; type: toxicity, cell-based; settings: dose 50-100 µM
U2OS [9] = experiment: Cytotoxicity against human U2OS cells assessed as reduction in cell viability at 50 to 100 uM incubated for 72 hrs by alamar blue assay; type: toxicity, cell-based; settings: dose 50-100 µM
HFF [10] = experiment: Cytotoxicity against HFF cells assessed as reduction in cell viability at 50 to 100 uM incubated for 72 hrs by alamar blue assay; type: toxicity, cell-based; settings: human, dose 50-100 µM
MCF7 [11] = experiment: Cytotoxicity against human MCF7 cells assessed as reduction in cell viability at 50 to 100 uM incubated for 72 hrs by alamar blue assay; type: toxicity, cell-based; settings: mcf7, 72 h, dose 50-100 µM
MDA-MB-231 [12] = experiment: Cytotoxicity against human MDA-MB-231 cells assessed as reduction in cell viability at 50 to 100 uM incubated for 72 hrs by alamar blue assay; type: toxicity, cell-based; settings: mda-mb-231, 72 h, dose 50-100 µM
[13] = Drug concentration in CD-1 mouse plasma at 30 mg/kg, ip measured at 6 hrs post injection; type: ADME, organism-based
[14] = Half life in CD-1 mouse at 30 mg/kg, ip measured for 6 hrs; type: ADME, organism-based; settings: in vivo
[15] = Toxicity in CD-1 mouse assessed as drug tolerance at 30 mg/kg, ip measured for 6 hrs; type: organism-based; settings: in vivo
[16] = target: KV channel (voltage-gated potassium channel family) (Homo sapiens, UniProt O43525+O43526+O95259+P16389+P17658+P22001+P22459+P22460+P48547+P51787+P56696+Q03721+Q09470+Q12809+Q14003+Q14721+Q16322+Q6PIU1+Q8NCM2+Q8TAE7+Q8TDN1+Q8TDN2+Q92953+Q96KK3+Q96L42+Q96PR1+Q96RP8+Q9BQ31+Q9H252+Q9H3M0+Q9NR82+Q9NS40+Q9NSA2+Q9NZV8+Q9UIX4+Q9UJ96+Q9UK17+Q9ULD8+Q9ULS6+Q9UQ05); experiment: Inhibition of KV channel (unknown origin) at 10 uM by antagonist ligand based assay relative to control; type: protein assay
[17] = target: T1, 5-hydroxytryptamine receptor 2B (Homo sapiens, UniProt P41595); experiment: Inhibition of [3H]LSD binding to 5-HT2B receptor (unknown origin)
T1 sequence (P41595 whole entry): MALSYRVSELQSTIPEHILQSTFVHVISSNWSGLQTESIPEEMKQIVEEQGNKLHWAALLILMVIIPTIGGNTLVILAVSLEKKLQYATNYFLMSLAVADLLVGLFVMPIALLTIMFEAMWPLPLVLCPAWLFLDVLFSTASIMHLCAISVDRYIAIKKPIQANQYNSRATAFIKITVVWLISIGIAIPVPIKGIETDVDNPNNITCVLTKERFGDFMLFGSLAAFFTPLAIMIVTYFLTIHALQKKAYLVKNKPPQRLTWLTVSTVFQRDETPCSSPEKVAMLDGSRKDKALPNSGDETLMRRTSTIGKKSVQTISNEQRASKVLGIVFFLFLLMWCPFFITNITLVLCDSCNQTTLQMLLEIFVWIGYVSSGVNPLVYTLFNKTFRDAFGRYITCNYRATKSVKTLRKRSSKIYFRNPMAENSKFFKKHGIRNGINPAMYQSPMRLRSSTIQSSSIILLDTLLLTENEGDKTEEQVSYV

[18] = target: T1, 5-hydroxytryptamine receptor 2B; settings: dose 32000.0 nM
Description: Inhibition of [3H]LSD binding to 5-HT2B receptor (unknown origin) assessed as maximum inhibition at 32000 nM relative to control

SMILES | Activity (HEK293 [1]) | Activity (LNCaP [2]) | Activity (U2OS [3]) | Activity (HFF [4]) | Activity (MCF7 [5]) | Activity (MDA-MB-231 [6]) | Activity (HEK293 [7]) | Activity (LNCaP [8]) | Activity (U2OS [9]) | Activity (HFF [10]) | Activity (MCF7 [11]) | Activity (MDA-MB-231 [12]) | concentration at 6 h [13] [nM] | half-life [14] [h] | Activity [15] | inhibition at 10 µM [16] [%] | Ki [17] [nM] | Imax [18] [%]
O=C(NCC(=O)N1CCCC1)Nc1ccc2cnccc2c1 | Non-Toxic | Non-Toxic | Non-Toxic | Non-Toxic | Non-Toxic | Non-Toxic | Toxic | Toxic | Toxic | Toxic | Toxic | Toxic | 208 | ~1 | Non-Toxic | -12 | > 15000 | 50
Cn1ccc2cc3c(cc21)CCN3C(=O)Nc1cccnc1 | – | – | – | – | – | – | – | – | – | – | – | – | – | – | – | – | 18.5 | –
